# US12458702B2 (NATIONAL TAIWAN UNIVERSITY, priority 2022, dated 2025)
# “Also recorded” adds a separate entry of the source. Where two headings read alike, the source gives them in different places.
# How the values were obtained:
# HCT-116 = assay: Cytotoxicity by SRB assay in HCT-116 cells; format: cell-based, human
# Experimental: (§1) The fraction of cell survival was calculated as follows. Survival fraction=(OD treated−blank)/(OD control−blank). […] Each experiment was repeated three times.
# [1] = test system: CRC cell lines HCT-116 and HT-29; assay: Cytotoxicity against CRC cell lines, summary over both lines (SRB assay); format: cell-based, human; settings: for cytotoxicity against CRC cell lines, in words: HCT-116 and HT-29, with or without GSH
# Experimental: as §1
# [2] = Human plasma stability (RP-HPLC); format: in vitro ADME; settings: 95% human plasma, 37° C.
# Experimental: To access human plasma stability, synthesized conjugates were prepared in 95% human plasma. […] The mixture was centrifuged at 13,000 rpm for 5 min. […] For compounds 30 and 31, they were dissolved in DMA and added GSH (11.2 mM or 11.2 μM) solution which was prepared in sodium acetate buffer (10 mM, pH 5.0) in the ratio of 50/40 (v/v, drug in DMA/GSH solution) for final GSH of 5 mM or 5 μM in pH 7.0, respectively. After incubation for the indicated time, samples were centrifuged to collect the clear supernatant and stored at −30° C. until analysis. RP-HPLC injections were carried out at the specified conditions, and the area of peak was integrated for further calculation.
# [3] = Stability and drug release in GSH (RP-HPLC); format: in vitro ADME
# Experimental: […] After incubation for the indicated time, samples were centrifuged to collect the clear supernatant and stored at −30° C. until analysis. RP-HPLC injections were carried out at the specified conditions, and the area of peak was integrated for further calculation.
# pH stability analysis = format: physicochemical
# HT-29 = assay: Cytotoxicity by SRB assay in HT-29 cells
# Experimental: Cancer cell lines were obtained from ATCC unless otherwise noted. HT-29 and HCT-116 cells were cultured in Dulbecco's Modified Eagle Medium (DMEM, Thermo Fisher Scientific) with 10% fetal bovine serum (FBS, Thermo Fisher Scientific) and 1% antibiotic-antimycotic (Thermo Fisher Scientific).
# Briefly, CRC cells were seeded at a density of 5×10^3 cells/well in 96-well microtiter plates (100 μL/well), separated into two groups with or without GSH. After incubation for 24 hours, the culture medium was replaced by fresh medium (100 μL). […] After incubation, 10% cold trichloroacetic acid was gently added to each well and incubated at 4° C. for 1 h. The medium was removed, carefully washed with water, and dried at room temperature. […] The optical density (O.D.) was measured at 510 nm with Multi-Mode Microplate Reader (SpectraMax Paradigm, Beckman Coulter, U.S.). The fraction of cell survival was calculated as follows. Survival fraction=(OD treated−blank)/(OD control−blank). […] Each experiment was repeated three times.
# [4] = test system: metastatic colorectal cancer; settings: phase II, single-agent, patients resistant to fluorouracil; cited from earlier work
# [5] = test system: orthotopic CRC mice model; assay: Orthotopic AOM/DSS-induced CRC mice model, tumor area; format: in vivo, BALB/c mice
# Experimental: Azoxymethane (AOM)-induced murine CRC model was applied to model human CRC. BALB/c mice (6 weeks of age, male) were intraperitoneally (i.p.) injected once every two weeks with AOM (10 mg/kg body weight) or the PBS vehicle. Seven days after each AOM injection, 2% dextran sulfate sodium (DSS) was given in the drinking water for four days, followed by 3 days of regular water. This cycle was repeated three times. The mice were randomly divided into eight groups (n=5), on day 60 after the first AOM treatment. […] Tumor volumes and body weights were recorded at sacrifice. The tumors were counted under a dissecting microscope, and the area covered by tumors was measured by imaging software (AxioVision LE 4.8.2.0).
# [6] = Body weight changes in the CRC mice model; format: in vivo, BALB/c mice; settings: during treatment in CRC mice model
# Experimental: Azoxymethane (AOM)-induced murine CRC model was applied to model human CRC. BALB/c mice (6 weeks of age, male) were intraperitoneally (i.p.) injected once every two weeks with AOM (10 mg/kg body weight) or the PBS vehicle. Seven days after each AOM injection, 2% dextran sulfate sodium (DSS) was given in the drinking water for four days, followed by 3 days of regular water. This cycle was repeated three times. The mice were randomly divided into eight groups (n=5), on day 60 after the first AOM treatment. […] Irinotecan (20 mg/kg), compound 31 (20 mg/kg), and irinotecan+compound 17 (20 mg/kg of irinotecan and 14 mg/kg of compound 17) were injected i.p. q.o.d for two weeks. […] Tumor volumes and body weights were recorded at sacrifice. The tumors were counted under a dissecting microscope, and the area covered by tumors was measured by imaging software (AxioVision LE 4.8.2.0).
# NHDF = assay: Cytotoxicity by SRB assay in low GLUT-1 normal cell line NHDF; format: cell-based; settings: Homo sapiens, low expression GLUT-1 normal cell line
# Experimental: as §1
# [7] = Plasma pharmacokinetics in mice (UPLC-MS/MS); format: in vivo, BALB/c mice
# Experimental: (§2) In the following PK experiments, BALB/c mice (six weeks of age, male) were randomly divided into two groups (n=3). […] Blood samples were collected via femoral vein by syringes at 0, 1, 3, 5, 10, 15, 30, 45 min, 1, 2, 4, and 24 h after drug administration. 50 μL blood samples were collected into 100 μL extraction solvent (EtOAc/MeOH=1:1) and vortex for 30 sec. The supernatants were separated from the mixture by centrifugation at 10,000 rpm for 10 min and frozen at −30° C. pending UPLC-MS/MS analysis. For bio-distribution experiments, the entire dissected organs were placed into round-bottom after weighting, two-milliliter microcentrifuge tubes with 1 mL of extraction solvent (EtOAc/MeOH=1:1) and 7 mm stainless steel beads, then homogenized for 30 min. All of the containers were maintained at 4° C. throughout the process. The supernatants were separated from the mixture by centrifugation at 10,000 rpm for 10 min and frozen at −30° C. The 200 μL solvent from crude organ suspensions was removed by the dryer and then dissolved in 50 μL extraction solvent. All samples were stored at −30° C. and analyzed within 24 h. All of the samples were filtered through 0.22 μm PTFE membranes into 12×32 mm vials for UPLC-MS/MS analyses using 5-FU-^15N2 as a marker. Pharmacokinetic parameters were calculated using the WinNonlin Software (version 5.2, Pharsight, MO, USA.)
# (§3) Analyses were performed on an ACQUITY UPLC I-Class/Xevo TQ-XS IVD System (Waters, Milford, MA, USA) from College of Public Health, National Taiwan University. The reverse phase BEH C18 (100 mm×2.1 mm, 1.7 μm, Waters) and VanGuard BEH C18 (5 mm×2.1 mm, 1.7 μm, Waters) precolumns were used to separate the analytes. All data were acquired by MassLynx V4.2. The mobile phase consisted of a 10 mM aqueous solution of ammonium acetate (A) and acetonitrile (B), set as follows: 0.00 min 98% A→1.00 min 98% A→3.00 min 10% A→4.50 min 10% A→4.60 min 98% A→6.00 min 98% A; at a rate of 0.5 mL/min for 6.00 min with 4 μL per injection. The column oven was maintained at 60° C. Multiple reaction monitoring (MRM) method was applied in quantification. Mass spectrometer parameters were as follows: capillary voltage, 3.0 kV/3.0 kV, respectively, for positive/negative ion mode; ion source temperature, 120° C.; desolvation temperature, 450° C.; cone gas flow (N2), 50 L/h; desolvation gas flow (N2), 700 L/h; multiplier, 650 V; and collision gas pressure (Ar), 3−4×10^−3 mbar.
# [8] = Organ biodistribution in mice (UPLC-MS/MS); format: in vivo, BALB/c mice; settings: 1 hour post i.p. injection
# Experimental: as §2
# as §3, with “Mass spectrometer parameters were as follows: capillary voltage, 3.0 kV/3.0 kV, respectively, for positive/negative ion mode; ion source temperature, 120° C.; desolvation temperature, 450° C.; cone gas flow (N2), 50 L/h; desolvation gas flow (N2), 700 L/h; multiplier, 650 V; and collision gas pressure (Ar), 3−4×10^−3 mbar.” left out
# [9] = Homo sapiens, HCT-116, 48 h, w/o GSH, read-out: IC50 HCT-116 w/o GSH
# [10] = Homo sapiens, HT-29, 48 h, read-out: IC50 HT-29 w/o GSH
# [11] = Homo sapiens, HT-29, 48 h, read-out: IC50 HT-29 5 mM GSH
smiles,measurement,setting,value
O=C(CCc1cn(CCOCCOCCOc2cc(O)c(C(=O)CCc3ccc(O)cc3)c(O)c2)nn1)OCn1cc(F)c(=O)[nH]c1=O [Compound 9],IC50,HCT-116; [9],> 100 µM
same,"cytotoxicity against CRC cell lines, in words",[1],poorly cytotoxic
same,half-life,[2],3.6 h
same,"release of 5-FU, in words","[3]; 5 mM GSH, after 48 h",Little 5-FU was released
same,"pH stability, in words",pH stability analysis; pH 4-5,stable
same,"pH stability, in words",pH stability analysis; pH >7,prone to fully degrade
same,IC50,HT-29; [10],85 ± 9.1 µM
"CCc1c2c(nc3ccc(OC(=O)N4CCC(N5CCCCC5)CC4)cc13)-c1cc3c(c(=O)n1C2)COC(=O)[C@]3(O)CC [Irinotecan (39), irinotecan, reference compound]",IC50,"HCT-116; Homo sapiens, HCT-116, read-out: IC50 HCT-116 5 mM GSH, 72 h, prepared in DMA, 5 mM GSH",0.32 ± 0.02 µM
same,IC50,"HCT-116; Homo sapiens, HCT-116, 48 h, prepared in DMSO, read-out: IC50 HCT-116",3.69 ± 0.24 µM
same,IC50,"HCT-116; Homo sapiens, HCT-116, 72 h, prepared in DMA, w/o GSH, read-out: IC50 HCT-116 w/o GSH",0.36 ± 0.01 µM
same,IC50,"[1]; Homo sapiens, HCT-116 and HT-29, over Tables 1 to 3, read-out: IC50 in CRC cells",0.3 to 8.5 µM
same,response rate,[4],about 27%
same,IC50,"HT-29; Homo sapiens, HT-29, 48 h, read-out: IC50 HT-29",8.51 ± 1.86 µM
same,IC50,HT-29; [11],6.44 ± 0.3 µM
same,IC50,HT-29; [10],5.61 ± 0.11 µM
"CCc1c2c(nc3ccc(OC(=O)OCCSSCCOCCOCCOc4ccc(O)c(C(=O)CCc5ccc(O)cc5)c4O)cc13)-c1cc3c(c(=O)n1C2)COC(=O)[C@]3(O)CC [Compound 31, (S)-4,11-diethyl-4-hydroxy-3,14-dioxo-3,4,12,14-tetrahydro-1H-pyrano[3′,4′:6,7]indolizino[1,2-b]quinolin-9-yl(2-((2-(2-(2-(2,4-dihydroxy-3-(3-(4-hydroxyphenyl)propanoyl)phenoxy)ethoxy)eyhoxy)ethyl)disulfanyl)ethyl) carbonate]",IC50,"HCT-116; 72 h, prepared in DMA, w/o GSH, read-out: IC50 HCT-116 w/o GSH",0.00287 ± 0.00019 µM
same,IC50,"HCT-116; read-out: IC50 HCT-116 5 mM GSH, 72 h, prepared in DMA, 5 mM GSH",0.00259 ± 0.00012 µM
same,"cytotoxicity against CRC cell lines, in words",[1],less or similar cytotoxicity
same,half-life in human plasma,[2],0.833 h
same,degraded after 48 h,"[3]; 0 and 5 μM GSH, 48 h",10%
same,degraded to SN-38 after 48 h,"[3]; 5 mM GSH, 48 h",over 90%
same,reduction of tumor volume,"[5]; SN-38 series, 20 mg/kg i.p. once every two days for two weeks",70%
same,"anti-tumor efficacy (tumor area), in words","[5]; SN-38 series, i.p. once every two days for two weeks, 20 mg/kg, irinotecan 20 mg/kg + compound 17 14 mg/kg",better anti-tumor efficacy than irinotecan
same,"body weight change, in words",[6],did not decrease the body weight; also recorded: no significant change in the body weight
same,IC50,"HT-29; read-out: IC50 HT-29 5 mM GSH, 48 h, prepared in DMA, 5 mM GSH",0.0114 ± 0.00103 µM
same,IC50,"HT-29; read-out: IC50 HT-29 w/o GSH, 48 h, prepared in DMA, w/o GSH",0.0163 ± 0.00131 µM
"O=C(CCCSSCCOCCOCCOc1cc(O)c(C(=O)CCc2ccc(O)cc2)c(O)c1)OCn1cc(F)c(=O)[nH]c1=O [Compound 7, (5-Fluoro-2,4-dioxo-3,4-dihydropyrimidin-1(2H)-yl)methyl 4-((2-(2-(2-(3,5-dihydroxy-4-(3-(4-hydroxyphenyl)propanoyl)phenoxy)ethoxy)ethoxy)ethyl)disulfanyl)butanoate]",IC50,"HCT-116; Homo sapiens, HCT-116, read-out: IC50 HCT-116 5 mM GSH, 48 h, 5 mM GSH",10.5 µM
same,IC50,HCT-116; [9],21.2 ± 1.69 µM
same,IC50,NHDF,90 ± 2.6 µM
same,half-life in human plasma,[2],13 h
same,degradation after 48 h,"[3]; 5 μM GSH, 48 h",30%
same,cleavage percentage after 4 hours,[3]; 1 mM GSH,~10%
same,cleavage percentage after 4 hours,[3]; 5 mM GSH,up to 60%
same,half-life at 2.5 mM,"[3]; PBS containing 1 mM GSH, pH 7.4, half-life at 1 mM GSH, 1 mM GSH, PBS pH 7.4",10.3 h
same,half-life at 2.5 mM,"[3]; PBS containing GSH, pH 7.4, highly reductive environments, read-out: half-lives in highly reductive environments",< 5 h
same,reduction of tumor volume,"[5]; 5-FU series, 50 mg/kg i.p. once every 3 days for 3 weeks",67%
same,"tumor suppression (tumor area), in words","[5]; 5-FU series, i.p. once every three days for three weeks, compound 7 and 5-FU 50 mg/kg, 5-FU 10 mg/kg + compound 17 30 mg/kg",better tumor suppression than 5-FU
same,"body weight change, in words",[6],without body weight loss; also recorded: no significant change in the body weight
same,"plasma concentration of compound 7 after 5 min, in words",[7]; i.p. 50 mg/kg,below the detection limit
same,"plasma concentration of 5-FU after 2 h, in words",[7]; i.p. injection,undetectable
same,T. of 5-FU,"[7]; i.p. injection, 5-FU measured in plasma",45 min
same,time within which 5-FU released from compound 7 was detected in blood,[7]; i.v. 50 mg/kg,≤ 2 h
same,"plasma concentration of compound 7 after 30 min, in words","[7]; i.v. 50 mg/kg, lower detection limit=0.003 μg/mL, detectable again after 45 min and 4 h",undetectable
same,"organ distribution of the compound, in words",[8]; 50 mg/kg,"distributed in the stomach, colon, heart, and liver"
same,"organ distribution of 5-FU, in words","[8]; compound 7 50 mg/kg, free 5-FU 9.5 mg/kg","detected mainly in colon, with small amounts in the kidney and stomach"
same,IC50,HT-29; [11],3.8 µM
same,IC50,HT-29; [10],19.6 ± 3.86 µM
